Legend:
AGS cells = experiment: Apoptosis analysis by Annexin V / 7AAD staining; type: cell-based; settings: 72 h
Method: (§1) After 72 h of treatment the media and the cells were collected, and cytotoxicity was determined by cell counts. Cells (including cells from the media) were stained for Annexin V and 7AAD for apoptosis analysis. For the testing of the clonogenic effect, cells were seeded for colonies.
(§2) Cells were seeded on inovitro dishes and petri dishes 24 h before starting the experiments. Media containing the indicated concentration of each chemotherapy component alone or FOLFOX and control media was added to the cells and the dishes were connected to TTFields (as in SOP-BI-009) or grown in 37° C., 5% CO2 for 72 h. Each treatment included 8 repeats (8 dishes). The media was replaced every 24 h. At the end of the experiment the cells were collected, and cytotoxicity was determined by cell counts, small number of cells were seeded for colonies and the cells (including cells from the media) were stained for Annexin V and 7AAD for apoptosis analysis.
(§3) Apoptotic effect: Average of cell fraction of each marker staining (Annexin V and 7AAD) of at least 5 dishes from each treatment was calculated in Excel software. The averages from these repeats was calculated to averages and is presented in stacked bar graph using GraphPed software.

KATO III cells = experiment: Apoptosis analysis by Annexin V / 7AAD staining; type: cell-based; settings: for AnnV+ 7AAD+ cell fraction / AnnV+ 7AAD− cell fraction / AnnV− 7AAD+ cell fraction / AnnV− 7AAD− cell fraction: 72 h
Method: as §1, §2, §3

[1] = 1.5 uM, + TTFields 150 kHz 1.0 V/cm
[2] = 4.5 uM, + TTFields 150 kHz 1.0 V/cm
[3] = 13.5 uM, + TTFields 150 kHz 1.0 V/cm
[4] = FOLFOX experiment, 0.5 uM, + TTFields 150 kHz 1.0 V/cm
[5] = FOLFOX experiment, 0.5 uM, no TTFields
[6] = 1.5 nM, + TTFields 150 kHz 1.6 V/cm
[7] = 4.5 nM, + TTFields 150 kHz 1.6 V/cm
[8] = 13.5 nM, + TTFields 150 kHz 1.6 V/cm
[9] = 40 nM, + TTFields 150 kHz 1.6 V/cm
[10] = FOLFOX experiment, 1.5 uM, + TTFields 150 kHz 1.6 V/cm
[11] = FOLFOX experiment, 1.5 uM, no TTFields

With O=c1[nH]cc(F)c(=O)[nH]1 [5-FU, 5-fluorouracil] the “AnnV− 7AAD+ cell fraction” value (AGS cells; 0.5 uM, no TTFields) was 1.40%, the “AnnV− 7AAD− cell fraction” value (AGS cells; 0.5 uM, no TTFields) was 88.78% and the “AnnV+ 7AAD+ cell fraction” value (AGS cells; [1]) was 9.05%. The “AnnV+ 7AAD− cell fraction” value (AGS cells; [1]) was 5.90%, the “AnnV− 7AAD+ cell fraction” value (AGS cells; [1]) was 1.28% and the “AnnV− 7AAD− cell fraction” value (AGS cells; [1]) was 83.80%. The “AnnV+ 7AAD+ cell fraction” value (AGS cells; 1.5 uM, no TTFields) was 5.48%, the “AnnV+ 7AAD− cell fraction” value (AGS cells; 1.5 uM, no TTFields) was 5.03% and the “AnnV− 7AAD+ cell fraction” value (AGS cells; 1.5 uM, no TTFields) was 1.23%. The “AnnV− 7AAD− cell fraction” value (AGS cells; 1.5 uM, no TTFields) was 88.25%, the “AnnV+ 7AAD+ cell fraction” value (AGS cells; [2]) was 12.35% and the “AnnV+ 7AAD− cell fraction” value (AGS cells; [2]) was 6.78%. The “AnnV− 7AAD+ cell fraction” value (AGS cells; [2]) was 2.48%, the “AnnV− 7AAD− cell fraction” value (AGS cells; [2]) was 78.43% and the “AnnV+ 7AAD+ cell fraction” value (AGS cells; 4.5 uM, no TTFields) was 6.40%. For the same compound, the “AnnV+ 7AAD− cell fraction” value (AGS cells; 4.5 uM, no TTFields) was 5.08%, the “AnnV− 7AAD+ cell fraction” value (AGS cells; 4.5 uM, no TTFields) was 1.25% and the “AnnV− 7AAD− cell fraction” value (AGS cells; 4.5 uM, no TTFields) was 87.28%. For the same compound, the “AnnV+ 7AAD+ cell fraction” value (AGS cells; [3]) was 14.45%, the “AnnV+ 7AAD− cell fraction” value (AGS cells; [3]) was 8.70% and the “AnnV− 7AAD+ cell fraction” value (AGS cells; [3]) was 2.63%. For the same compound, the “AnnV− 7AAD− cell fraction” value (AGS cells; [3]) was 74.20%, the “AnnV+ 7AAD+ cell fraction” value (AGS cells; 13.5 uM, no TTFields) was 8.45% and the “AnnV+ 7AAD− cell fraction” value (AGS cells; 13.5 uM, no TTFields) was 6.20%. For the same compound, the “AnnV− 7AAD+ cell fraction” value (AGS cells; 13.5 uM, no TTFields) was 0.90%, the “AnnV− 7AAD− cell fraction” value (AGS cells; 13.5 uM, no TTFields) was 84.45% and the “AnnV+ 7AAD+ cell fraction” value (AGS cells; [4]) was 10.3%. The “AnnV+ 7AAD− cell fraction” value (AGS cells; [4]) was 7.3%, the “AnnV− 7AAD+ cell fraction” value (AGS cells; [4]) was 1.7% and the “AnnV− 7AAD− cell fraction” value (AGS cells; [4]) was 80.8%. The “AnnV+ 7AAD+ cell fraction” value (AGS cells; [5]) was 4.3%, the “AnnV+ 7AAD− cell fraction” value (AGS cells; [5]) was 4.8% and the “AnnV− 7AAD+ cell fraction” value (AGS cells; [5]) was 1.8%. For the same compound, the “AnnV− 7AAD− cell fraction” value (AGS cells; [5]) was 89.1%, the “elevation in percent of cells that undergo apoptosis, drug + TTFields compared to drug alone” value (KATO III cells) was “higher” and the “AnnV+ 7AAD+ cell fraction” value (KATO III cells; [6]) was 19.12%. The “AnnV+ 7AAD− cell fraction” value (KATO III cells; [6]) was 17.49%, the “AnnV− 7AAD+ cell fraction” value (KATO III cells; [6]) was 2.24% and the “AnnV− 7AAD− cell fraction” value (KATO III cells; [6]) was 61.16%. For the same compound, the “AnnV+ 7AAD+ cell fraction” value (KATO III cells; 1.5 nM, no TTFields) was 11.98%, the “AnnV+ 7AAD− cell fraction” value (KATO III cells; 1.5 nM, no TTFields) was 11.44% and the “AnnV− 7AAD+ cell fraction” value (KATO III cells; 1.5 nM, no TTFields) was 1.95%. The “AnnV− 7AAD− cell fraction” value (KATO III cells; 1.5 nM, no TTFields) was 74.64%, the “AnnV+ 7AAD+ cell fraction” value (KATO III cells; [7]) was 20.44% and the “AnnV+ 7AAD− cell fraction” value (KATO III cells; [7]) was 13.34%. The “AnnV− 7AAD+ cell fraction” value (KATO III cells; [7]) was 4.25%, the “AnnV− 7AAD− cell fraction” value (KATO III cells; [7]) was 61.98% and the “AnnV+ 7AAD+ cell fraction” value (KATO III cells; 4.5 nM, no TTFields) was 11.92%. The “AnnV+ 7AAD− cell fraction” value (KATO III cells; 4.5 nM, no TTFields) was 11.00%, the “AnnV− 7AAD+ cell fraction” value (KATO III cells; 4.5 nM, no TTFields) was 3.59% and the “AnnV− 7AAD− cell fraction” value (KATO III cells; 4.5 nM, no TTFields) was 73.50%. The “AnnV+ 7AAD+ cell fraction” value (KATO III cells; [8]) was 17.18%, the “AnnV+ 7AAD− cell fraction” value (KATO III cells; [8]) was 16.21% and the “AnnV− 7AAD+ cell fraction” value (KATO III cells; [8]) was 2.01%. For the same compound, the “AnnV− 7AAD− cell fraction” value (KATO III cells; [8]) was 64.61%, the “AnnV+ 7AAD+ cell fraction” value (KATO III cells; 13.5 nM, no TTFields) was 11.72% and the “AnnV+ 7AAD− cell fraction” value (KATO III cells; 13.5 nM, no TTFields) was 12.44%. The “AnnV− 7AAD+ cell fraction” value (KATO III cells; 13.5 nM, no TTFields) was 2.22%, the “AnnV− 7AAD− cell fraction” value (KATO III cells; 13.5 nM, no TTFields) was 73.64% and the “AnnV+ 7AAD+ cell fraction” value (KATO III cells; [9]) was 21.25%. For the same compound, the “AnnV+ 7AAD− cell fraction” value (KATO III cells; [9]) was 11.40%, the “AnnV− 7AAD+ cell fraction” value (KATO III cells; [9]) was 3.58% and the “AnnV− 7AAD− cell fraction” value (KATO III cells; [9]) was 63.76%. The “AnnV+ 7AAD+ cell fraction” value (KATO III cells; 40 nM, no TTFields) was 12.48%, the “AnnV+ 7AAD− cell fraction” value (KATO III cells; 40 nM, no TTFields) was 10.55% and the “AnnV− 7AAD+ cell fraction” value (KATO III cells; 40 nM, no TTFields) was 3.42%. For the same compound, the “AnnV− 7AAD− cell fraction” value (KATO III cells; 40 nM, no TTFields) was 73.55%, the “AnnV+ 7AAD+ cell fraction” value (KATO III cells; [10]) was 32.59% and the “AnnV+ 7AAD− cell fraction” value (KATO III cells; [10]) was 16.09%. The “AnnV− 7AAD+ cell fraction” value (KATO III cells; [10]) was 1.39%, the “AnnV− 7AAD− cell fraction” value (KATO III cells; [10]) was 49.94% and the “AnnV+ 7AAD+ cell fraction” value (KATO III cells; [11]) was 22.22%. The “AnnV+ 7AAD− cell fraction” value (KATO III cells; [11]) was 11.36%, the “AnnV− 7AAD+ cell fraction” value (KATO III cells; [11]) was 0.96% and the “AnnV− 7AAD− cell fraction” value (KATO III cells; [11]) was 65.47%.
